Source: ChEMBL document CHEMBL3271945, “Azabicyclo chemistry. 6. An investigation of one of the chemical parameters for analgetic activity. Synthesis of 2-methyl-2-azabicyclo[3.3.1]non-6-ene and -non-7-ene” (J Med Chem, 1977)
The source made the active and inactive calls. No cut-off for these calls is given here.

Legend:
Mus musculus [1] = experiment: Analgetic activity in mouse at 100 mg/kg, sc by hot-plate method; format: functional, organism-based; design: dose 100 mg/kg
Mus musculus [2] = experiment: Toxicity in mouse at 100 mg/kg, sc; format: organism-based; design: dose 100 mg/kg, route subcutaneous; details: in vivo
Mus musculus [3] = experiment: Analgetic activity in mouse at 50 mg/kg, sc by hot-plate method; format: functional, organism-based; design: dose 50 mg/kg
Mus musculus [4] = experiment: Analgetic activity in sc dosed mouse by hot-plate method; format: functional

Question: CN1CCC2CC1C[C@@H](O)C2 (stereo partly drawn) was tested. Which Activity (Mus musculus [1]) did it give?
Answer: inactive

Question: Which results are given for CN1CC[C@@H]2C=CC[C@@H]1C2?
Answer: Activity (Mus musculus [2]): Toxic; Activity (Mus musculus [3]): inactive

Question: CN1CC[C@H]2C[C@H]1Cc1ccc(O)cc12 was tested. Which ED50 (Mus musculus [4]) did it give?
Answer: 4.5 mg/kg

Question: With CN1CC[C@@H]2CC=C[C@@H]1C2 as the compound, how does the Activity (Mus musculus [1]) read?
Answer: inactive

Question: For CN1CC[C@@]2(C)C[C@H]1Cc1ccccc12, which ED50 (Mus musculus [4]) is on record?
Answer: 11 mg/kg

Question: For CN1CCC2CC(=O)CC1C2 (stereo not drawn), which ED50 (Mus musculus [4]) is on record?
Answer: 40 mg/kg

Question: How did the ED50 (Mus musculus [4]) turn out when CN1CC[C@]23c4c5ccc(O)c4O[C@H]2[C@@H](O)C=C[C@H]3[C@H]1C5 [MORPHINE] was run?
Answer: 1.2 mg/kg
